According to patent US10512656B2, “Compositions and methods for the treatment of lysosomal storage disorders and disorders characterized by lysosomal dysfunction” (Baylor College of Medicine, priority 2016, dated 2019):

Legend:
Cln3^Δex7-8 and WT mice = assay: Auditory brainstem response (ABR) measurements; format: in vivo, mouse; conditions: 10-month-old mice, both genotypes, vs untreated age-matched controls
Method: ABRs were measured as previously described^69. Briefly, 10-month-old mice (n=4-6 per genotype/treatment group) were anaesthetized using an intraperitoneal injection of ketamine (100 mg/kg) and xylazine (10 mg/kg) and then immobilized in a head holder. Normal body temperature was maintained throughout the procedure by placing the mice on a heating pad. Pure tone stimuli from 4 to 48 kHz were generated using Tucker-Davis Technologies System 3 digital signal processing hardware and software (Tucker-Davis Technologies, Alachua, Fla., USA), and the intensity of the tone stimuli was calibrated using a type 4,938 ¼″ pressure-field calibration microphone (Bruel and Kjar, Nrum, Denmark). Response signals were recorded with subcutaneous needle electrodes inserted at the vertex of the scalp, the postauricular region and the back leg (ground)^69. Auditory thresholds were determined by decreasing the sound intensity of each stimulus from 90 to 10 dB in 5 dB steps, until the lowest sound intensity with reproducible and recognizable waves in the response was reached. Mean hearing thresholds±s.d. (dB SPL) were plotted as a function of stimulus frequency (kHz). Statistical analysis consisted of one-way analyses of variance to reveal overall trends accompanied by two-tailed Student's t-tests at individual frequencies to evaluate frequency-specific effects. […]

TFEB = TFEB nuclear translocation in WT and Tsc2-/- MEFs; format: cell-based, mouse; conditions: Tsc2-/- MEFs (constitutively active mTORC1) and control MEFs
Method: (b) Quantification of TFEB subcellular localization (C, cytoplasmic; N, nuclear) after 24 h of trehalose treatment (Tre) or in untreated cells (UT). Scale bars in a, b is 40 μm. (c) Immunoblot analyses show expression levels of substrates downstream of mTORC1. Wild-type (WT) and TSC2 null MEF cells were treated with trehalose (Tre; 100 mM) for 24 h or left untreated. As controls, cells were treated with Torin 1 (300 nM) or rapamycin (300 nM) for 2 h before extracting the lysates. Phospho- and total S6K1 (P-S6K1 and T-S6K1), phospho- and total S6 (P-S6 and T-S6) and phospho- and total 4E-BP1 (P-4E-BP1 and T-4E-BP1) were detected as readouts of mTORC1 activity. […] (f) HeLa cells co-transfected with TFEB-3×FLAG and mTOR or (g) TFEB-3×FLAG and constitutively active mTOR (CA-mTOR, […]) constructs were treated with trehalose (100 mM for 24 h) or left untreated before immunofluorescent labelling of TFEB (red) and mTOR (green) with FLAG and mTOR antibodies, respectively. Scale bar, 10 μm (d-g). Data represent means±s.e.m.
For immunofluorescence assay, cells were grown on coverslips in 24-well plates. After the treatment, cells were washed with PBS and fixed with methanol for 10 min. Cells were then blocked with blocking reagent (0.1% saponin, 10% bovine serum in PBS) for 1 h and incubated with appropriate primary antibody(s) (1:100) for 3 h at room temperature. […]

ERK = ERK inhibition check; format: cell-based
Method: Brain tissue and cultured cells were collected and lysed in RIPA buffer (50 mM Tris-HCl, ph 7.4, 1% NP40, 0.5% Na-deoxycholate, 0.1% SDS, 150 mM NaCl, 2 mM EDTA and 50 mM NaF) including a cocktail of protease (Roche) and phosphatase (SIGMA) inhibitors. Protein concentrations were measured with the bicinchoninic acid protein assay kit (Pierce, Rockford, Ill.), using bovine serum albumin as standard. Lysates were separated via SDS-polyacrylamide gel electrophoresis (PAGE) and then transferred to nitrocellulose membranes. Blots were incubated in blocking buffer (5%, w/v, dried skimmed milk in Tris-buffered saline, pH 7.4 and 0.2% Tween 20, TBST) followed by overnight incubation with appropriate antibodies diluted in blocking buffer (5% dry milk). Western blot images were acquired by LAS 4000 (GE Healthcare) and quantified using ImageJ. Images have been cropped for presentation.

Cln3^Δex7-8 mice [1] = assay: TEM counting of fingerprint profiles; format: in vivo, mouse
Method: Mice were anaesthetized and perfused intracardially with saline solution followed by 2% formaldehyde+2.5% glutaraldehyde in 0.1M sodium cacodylate buffer (pH 7.4). Brains were removed and small pieces of cerebellum and cortex were collected, and further postfixed in 2% formaldehyde|o2.5% glutaraldehyde, 0.1M sodium cacodylate buffer (pH 7.4) for 24 h. One-hundred micrometer coronal sections were cut with a vibratome and fixed in 1% OsO4 in 0.1M cacodylate for 1 h, stained with uranyl acetate dehydrated and embedded in Eponate 812. Ultrathin sections at 60 nm were obtained on an RMC MT6000 ultramicrotome and examined with a Hitachi H7500 transmission electron microscope. Images were captured using a Gatan US1000 high-resolution digital camera and Digital Micrograph software (v1.82.366).

Cln3^Δex7-8 mice [2] = assay: Wet brain weight; format: in vivo, mouse; conditions: 12-month-old Cln3^Δex7-8 mice, trehalose treatment; untreated 0.355±0.024 g, WT 0.516±0.021 g
Method: Cln3^Δex7-8 mice (stock no. 004685; Cln3^tm1.1Mem/J; CD-1 background)^32 were obtained from the Jackson Laboratory. Control (CD-1) and Cln3^Δex7-8 mice were housed 3-4 per cage in a room with a 12-h light/12-h dark cycle. Food and water were provided ad libitum. All mice used in this study were analyzed at 8 and 12 months of age and were littermates produced by crossing heterozygous Cln3^Δex7-8 mice. Only males were used for this analysis. Investigators were blinded when analyzing the data, and no randomization was necessary. No data were excluded from this study.
Trehalose (Swanson) was dissolved in drinking water to a final concentration of 2% and changed twice a week. Trehalose-containing water was given to Cln3^Δex7-8 and WT mice by spontaneous oral administration starting at 21 days of age and continuing until the day the mice died naturally (life span assessment) or were sacrificed for other studies.

OC[C@H]1O[C@H](O[C@H]2O[C@H](CO)[C@@H](O)[C@H](O)[C@H]2O)[C@H](O)[C@@H](O)[C@@H]1O [trehalose, a-D-glucopyranosyl a-D-glucopyranoside]
ABR thresholds (Cln3^Δex7-8 and WT mice): lower ABR thresholds
TFEB nuclear translocation (TFEB): induce TFEB nuclear translocation even with an active mTORC1
ERK inhibition (ERK): does not inhibit ERK
number of fingerprint profiles (Cln3^Δex7-8 mice [1]; Purkinje cells, P=0.047): significantly reduced the number of fingerprint profiles
number of fingerprint profiles (Cln3^Δex7-8 mice [1]; cortical neurons, P=0.017): significantly reduced the number of fingerprint profiles
wet brain weight (Cln3^Δex7-8 mice [2]): 0.473 ± 0.028 g
